Test results published in patent US20090069320A1, “Substituted 4-Amino-Quinazoline Compounds with Metabotropic Glutamate Receptor Regulating Activity and Uses Thereof” (Gruenenthal GmbH, priority 2006, published 2009).
Counter-ions that a name gives are not always drawn.

Molecular target: T1, mGluR5 receptor (Sus scrofa, UniProt I3LUI7)
T1 construct: 450 μg of protein from brain homogenate with 5 nM ^3[H]-MPEP; from tissue; host or cells: pig brain halves without medulla, cerebellum and pons
Experiment: [3H]-MPEP mGluR5 receptor binding assay (pig brain homogenate)
Conditions: 5 nM [3H]-MPEP; for IC50: read-out: IC50 mGluR5 Receptor (pig) [^3H]-MPEP Bond; for inhibition at 10 µM / % Inhibition of mGluR5 Receptor (pig) [^3H]-MPEP Bond at 10 μM: 10 μM compound; for inhibition at 10 µM: read-out: % Inhibition of mGluR5 Receptor (pig) [^3H]-MPEP Bond at 10 μM
How it was run: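 Radioligand displacement of 5 nM [3H]-MPEP from pig brain homogenate (450 μg protein; medulla, cerebellum and pons removed) in 20 mM Hepes pH 8.0. Compounds were tested at 10 μM, incubated 60 min at room temperature, then filtered and counted by scintillation. Non-specific binding was defined with 10 μM MPEP.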

T1 sequence (I3LUI7 19-1212): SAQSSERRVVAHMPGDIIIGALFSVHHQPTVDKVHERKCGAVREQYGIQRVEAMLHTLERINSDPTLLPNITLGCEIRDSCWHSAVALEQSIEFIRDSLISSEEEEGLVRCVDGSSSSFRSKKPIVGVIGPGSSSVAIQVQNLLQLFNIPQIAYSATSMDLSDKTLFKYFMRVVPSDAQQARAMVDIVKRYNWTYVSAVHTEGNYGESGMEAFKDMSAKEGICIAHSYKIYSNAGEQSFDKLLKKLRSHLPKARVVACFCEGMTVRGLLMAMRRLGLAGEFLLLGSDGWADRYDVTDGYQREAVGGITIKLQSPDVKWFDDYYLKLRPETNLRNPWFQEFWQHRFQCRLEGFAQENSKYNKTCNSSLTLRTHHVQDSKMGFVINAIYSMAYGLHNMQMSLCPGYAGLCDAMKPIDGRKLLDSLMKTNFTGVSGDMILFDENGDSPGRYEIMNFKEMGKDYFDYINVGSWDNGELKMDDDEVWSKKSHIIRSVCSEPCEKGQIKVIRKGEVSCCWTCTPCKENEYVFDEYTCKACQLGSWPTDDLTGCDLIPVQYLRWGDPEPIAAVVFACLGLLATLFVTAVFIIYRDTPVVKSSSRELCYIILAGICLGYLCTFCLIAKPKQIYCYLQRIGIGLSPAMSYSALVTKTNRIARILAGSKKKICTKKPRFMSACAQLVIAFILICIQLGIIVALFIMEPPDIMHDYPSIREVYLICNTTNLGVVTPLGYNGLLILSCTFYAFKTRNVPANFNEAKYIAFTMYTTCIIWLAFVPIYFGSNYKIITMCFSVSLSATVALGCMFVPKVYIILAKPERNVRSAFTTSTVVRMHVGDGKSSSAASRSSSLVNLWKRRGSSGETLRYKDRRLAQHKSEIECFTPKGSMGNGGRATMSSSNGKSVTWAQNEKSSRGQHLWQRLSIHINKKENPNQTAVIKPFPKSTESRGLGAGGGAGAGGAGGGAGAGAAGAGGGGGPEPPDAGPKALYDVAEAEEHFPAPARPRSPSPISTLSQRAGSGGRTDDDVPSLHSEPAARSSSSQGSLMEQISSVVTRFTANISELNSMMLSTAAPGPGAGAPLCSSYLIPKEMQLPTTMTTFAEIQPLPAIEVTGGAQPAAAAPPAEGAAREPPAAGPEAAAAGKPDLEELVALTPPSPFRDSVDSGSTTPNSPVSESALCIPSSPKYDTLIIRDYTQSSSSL

Row | inhibition at 10 µM | Structure (SMILES) | also measured
1 |  | CC(=O)N(CCc1ccccc1)Cc1cccc(-c2ccc3ncnc(NC4CC4)c3c2)c1 [Example 214, N-[3-(4-cyclopropylamino-quinazolin-6-yl)-benzyl]-N-phenethyl-acetamide] | IC50: 6920 nM
2 |  | O=C1C2CCCCC2C(=O)N1Cc1cccc(-c2ccc3ncnc(NC4CC4)c3c2)c1 (stereo not drawn) [Example 228, 2-[3-(4-cyclopropylamino-quinazolin-6-yl)-benzyl]-hexahydro-isoindole-1,3-dione; hydrochloride] | IC50: 8700 nM
3 | 61% | Cc1nc(NC2CC2)c2cc(-c3ccc(F)c(CN(C(=O)c4ccc(C(F)(F)F)cc4F)C4CC4)c3)ccc2n1 [Example 532, N-cyclopropyl-N-(5-(4-(cyclopropylamino)-2-methylquinazolin-6-yl)-2-fluorobenzyl)-2-fluoro-4-(trifluoromethyl)benzamide] | 
4 | 90% | COCC(=O)N(Cc1cccc(-c2cc(F)c3ncnc(NC4CC4)c3c2)c1)C1CC1 [Example 744, N-cyclopropyl-N-(3-(4-(cyclopropylamino)-8-fluoroquinazolin-6-yl)benzyl)-2-methoxyacetamide] | 
5 | 76% | CC(=O)N(Cc1cccc(-c2ccc3ncnc(NCc4cccc(C)c4)c3c2)c1)C1CC1 [Example 419, N-cyclopropyl-N-(3-(4-(3-methylbenzylamino)quinazolin-6-yl)benzyl)acetamide] | 
6 | 90% | O=C(c1ccc(C(F)(F)F)cc1F)N(Cc1cccc(-c2cc(F)c3ncnc(NC4CC4)c3c2)c1)C1CC1 [Example 738, N-cyclopropyl-N-(3-(4-(cyclopropylamino)-8-fluoroquinazolin-6-yl)benzyl)-2-fluoro-4-(trifluoromethyl)benzamide] | 
7 | 36% | CC(C)(C)C(=O)N(Cc1cccc(-c2ccc3ncnc(NCCc4ccccc4)c3c2)c1)C1CC1 [Example 401, N-cyclopropyl-N-(3-(4-(phenethylamino)quinazolin-6-yl)benzyl)pivalamide] | 
8 | 32% | Cc1cc(C(=O)N(Cc2cccc(-c3ccc4nc(C)nc(NC5CC5)c4c3)c2)C2CC2)n(C)n1 [Example 485, N-cyclopropyl-N-(3-(4-(cyclopropylamino)-2-methylquinazolin-6-yl)benzyl)-1,3-dimethyl-1H-pyrazole-5-carboxamide] | 
9 |  | CC(C)(C)Nc1ncnc2ccc(-c3ccc(F)c(CN(C(=O)c4cc(Cl)cc(Cl)c4)C4CC4)c3)cc12 [Example 820, N-(5-(4-(tert-butylamino)quinazolin-6-yl)-2-fluorobenzyl)-3,5-dichloro-N-cyclopropyl benzamide] | % Inhibition of mGluR5 Receptor (pig) [^3H]-MPEP Bond at 10 μM: 48%
10 | 41% | COc1ccc(CNc2ncnc3ccc(-c4cccc(CN(C(=O)CN(C)C)C5CC5)c4)cc23)c(OC)c1 [Example 689, N-cyclopropyl-N-(3-(4-(2,4-dimethoxybenzylamino)quinazolin-6-yl)benzyl)-2-(dimethylamino)acetamide] | 
11 | 66% | Cc1nc(NC2CC2)c2cc(-c3cccc(CN(C(=O)Cc4ccccc4)C4CC4)c3)ccc2n1 [Example 544, N-cyclopropyl-N-(3-(4-(cyclopropylamino)-2-methylquinazolin-6-yl)benzyl)-2-phenylacetamide] | 
12 | 55% | CN(C)CC(=O)N(Cc1cc(-c2ccc3ncnc(NC(C)(C)C)c3c2)ccc1F)C1CC1 [Example 861, N-(5-(4-(tert-butylamino)quinazolin-6-yl)-2-fluorobenzyl)-N-cyclopropyl-2-(dimethylamino)acetamide] | 
13 |  | CCN(Cc1cccc(-c2ccc3ncnc(NC4CC4)c3c2)c1)C(C)=O [Example 894, N-(3-(4-(cyclopropylamino)quinazolin-6-yl)benzyl)-N-ethylacetamide] | IC50: 1000 nM
14 |  | CCCCC(=O)N(Cc1cc(-c2ccc3ncnc(NC4CC4)c3c2)ccc1Cl)C1CC1 [Example 793, N-(2-chloro-5-(4-(cyclopropylamino)quinazolin-6-yl)benzyl)-N-cyclopropyl pentanamide] | % Inhibition of mGluR5 Receptor (pig) [^3H]-MPEP Bond at 10 μM: 94%
15 |  | CCCCC(=O)N(Cc1cccc(-c2ccc3ncnc(NC4CC4)c3c2)c1)C1CC1 [Example 256, pentanoic acid cyclopropyl-[3-(4-cyclopropylamino-quinazolin-6-yl)-benzyl]-amide] | IC50: 1470 nM
16 |  | COC(=O)N(Cc1cccc(-c2ccc3ncnc(NC4CC4)c3c2)c1)C1CC1 [Example 898, methyl cyclopropyl(3-(4-(cyclopropylamino)quinazolin-6-yl)benzyl)carbamate] | IC50: 90 nM
17 | 31% | CCCN(Cc1cccc(-c2ccc3ncnc(Nc4ccccc4)c3c2)c1)C(=O)c1ccsc1 [Example 108, thiophene-3-carboxylic acid [3-(4-phenylamino-quinazolin-6-yl)-benzyl]-propyl-amide] | 
18 | 74% | CC(C)(C)C(=O)N(Cc1cc(-c2ccc3ncnc(NC4CC4)c3c2)ccn1)C1CC1 [Example 828, N-cyclopropyl-N-((4-(4-(cyclopropylamino)quinazolin-6-yl)pyridin-2-yl)methyl)pivalamide] | 
19 |  | O=C1CCCC(=O)N1Cc1cc(-c2ccc3ncnc(NC4CC4)c3c2)ccc1F [Example 278, 1-(5-(4-(cyclopropylamino)quinazolin-6-yl)-2-fluorobenzyl)piperidine-2,6-dione] | IC50: 350 nM
20 |  | CC(=O)N(Cc1cccc(-c2ccc3ncnc(NC4CC4)c3c2)n1)C1CC1 [Example 890, N-cyclopropyl-N-((6-(4-(cyclopropylamino)quinazolin-6-yl)pyridin-2-yl)methyl)acetamide] | IC50: 4620 nM
21 | 78% | CC(=O)N(Cc1ccc(F)c(-c2ccc3ncnc(NC4CC4)c3c2)c1)C1CC1 [Example 896, N-cyclopropyl-N-(3-(4-(cyclopropylamino)quinazolin-6-yl)-4-fluorobenzyl)acetamide] | 
22 | 66% | Cc1cc2ncnc(NC3CC3)c2cc1-c1cccc(CN(C(=O)C2CCCCC2)C2CC2)c1 [Example 653, N-cyclopropyl-N-(3-(4-(cyclopropylamino)-7-methylquinazolin-6-yl)benzyl)cyclohexane carboxamide] | 
23 | 76% | CCCCC(=O)N(Cc1cccc(-c2ccc3nc(C)nc(NC4CC4)c3c2)c1)C1CC1 [Example 519, N-cyclopropyl-N-(3-(4-(cyclopropylamino)-2-methylquinazolin-6-yl)benzyl)pentanamide] | 
24 |  | O=C1CCC(=O)N1Cc1cccc(-c2ccc3ncnc(NCc4ccccc4)c3c2)c1 [Example 199, 1-(3-(4-(benzylamino)quinazolin-6-yl)benzyl)pyrrolidine-2,5-dione] | IC50: 1250 nM
25 |  | CC(C)(C)Nc1ncnc2ccc(-c3ccc(F)c(CN(C(=O)c4ccccc4)C4CC4)c3)cc12 [Example 837, N-(5-(4-(tert-butylamino)quinazolin-6-yl)-2-fluorobenzyl)-N-cyclopropyl benzamide] | % Inhibition of mGluR5 Receptor (pig) [^3H]-MPEP Bond at 10 μM: 86%
26 | 90% | O=S(=O)(Cc1ccccc1)N(Cc1cc(-c2ccc3ncnc(NC4CC4)c3c2)ccc1F)C1CC1 [Example 437, N-cyclopropyl-N-(5-(4-(cyclopropylamino)quinazolin-6-yl)-2-fluorobenzyl)-1-phenylmethane sulfonamide] | 
27 | 47% | CCCN(Cc1cccc(-c2ccc3ncnc(Nc4ccccc4)c3c2)c1)C(=O)c1cccs1 [Example 116, thiophene-2-carboxylic acid [3-(4-phenylamino-quinazolin-6-yl)-benzyl]-propyl-amide] | 
